Measurements as given in patent US20150368248A1, “2-SUBSTITUTED-6-BIARYLMETHYLAMINO-9-CYCLOPENTYL-9H-PURINE DERIVATIVES, USE THEREOF AS MEDICAMENTS, AND PHARMACEUTICAL COMPOSITIONS” (UNIVERZITA PALACKEHO V OLOMOUCI, priority 2013, published 2015).
pIC50: −log10 of the molar value.

Columns and labels:
[1] = test system: caspase-3/7 activity in PLC/PRF/5 cell line; test: One-step cellular caspase-3/7 activity assay; assay type: cell-based, human; conditions: 24 hours incubation, relative to 0 nM = 1.00
Protocol: (§1) Measurements of proapoptotic properties of new compounds were based on quantification of enzymatic activities of caspases, concretely caspases-3/7. Activity of cellular caspase-3/7 was measured according to Carrasco et al., 2003, BioTechniques, 34(5): 1064-67. Briefly, Hep3B and PLC/PRF/5 cells were incubated in the densities of 10000 cells/well in a 96-well plate overnight. Next day, the compounds in appropriate concentrations were added and cells were incubated for the 24 hours. After incubation, 3× caspase-3/7 assay buffer (150 mM HEPES pH 7.4, 450 mM NaCl, 150 mM KCl, 30 mM MgCl2, 1.2 mM EGTA, 1.5% Nonidet P40, 0.3% CHAPS, 30% sucrose, 30 mM DTT, 3 mM PMSF) with 150 μM Ac-DEVD-AMC as a substrate (Sigma-Aldrich) was added to the wells and plates were incubated at […]. The caspase-3/7 activity was measured after 6 hours using Fluoroskan Ascent microplate reader (Labsystems) at 346 nm/442 nm (excitation/emission).

[2] = test system: caspase-3/7 activity in Hep3B cell line; test: One-step cellular caspase-3/7 activity assay; assay type: cell-based, human; conditions: 24 hours, 0 nM = 1.00
Protocol: as §1

HepG2 = test: MTT cytotoxicity assay (Example 30); assay type: cell-based; conditions: Homo sapiens, HepG2, 72 h; MTT, three days after drug addition; read-out: Inhibitory concentration IC50, HepG2
Description: Cytotoxicity of the compounds is the major property determining their anticancer effect in vivo. One of the parameters used, as the basis for cytotoxicity assays, is the metabolic activity of viable cells. For example, a microtiter assay, which uses (3-(4,5-Dimethylthiazol-2-yl)-2,5-diphenyltetrazolium bromide (MTT), is widely used to quantitate cell proliferation and cytotoxicity. For instance, this assay is used in drug screening programs and in chemosensitivity testing. Because only metabolically active living cells reduce MTT to correspond purple formazan dye, these assays detect viable cells exclusively. The quantity of reduced MTT corresponds to the number of vital cells in the culture.
(§2) We have been using the following cell lines: HUH-7 and PLC/PRF/5 cell lines were maintained in DMEM supplemented with 10% fetal bovine serum, penicillin (100 U/ml) and streptomycin (100 μg/ml). Unique HCC-1.2 (3p) and HCC-1.1 (3sp) cell lines (Zilj et al., 2009, Future Oncol, 5(8):1169-79) and Hep3B cells were cultivated in RPMI supplemented with 10% fetal bovine serum, penicillin (100 U/ml) and streptomycin (100 μg/ml). HepG2 cell line was maintained in EMEM supplemented with 10% fetal bovine serum, sodium pyruvate (0.11 g/1), penicillin (100 U/ml) and streptomycin (100 μg/ml). All cell lines were cultivated at 37° C. in 5% CO2. For cytotoxicity assays, 3000 cells (10000 cells in case of HepG2 cell line) were seeded into each well of 96 well plate and the next day tested compounds were added at various concentrations in triplicates. Three days after drug addition MTT stock solution (5 mg/ml) was added into each well and incubated for 4 h. After this incubation period, produced formazan was dissolved by DMSO and final absorbance was measured at 570 nm with Synergy H4 Hybrid Multi-Mode Microplate Reader.

[3] = test system: p53-regulated transcription in Arn8 cells; test: p53-dependent transcriptional activity, β-galactosidase reporter; assay type: cell-based; conditions: 24 h incubation
Protocol: Stronger anticancer activity of the compounds is enhanced by its positive impact on stability and activity of the tumour suppressor p53. To measure p53-dependent transcriptional activity, β-galactosidase activity was quantified in the melanoma cell line Arn8, which had been established using stable transfection of cells with a p53-responsive reporter construct pRGCAfoslacZ (Frebung et al., Cancer Res., 52, 1992-6976). Briefly, after 24 h incubation with the inhibitors the Arn8 cells were permeabilized with 0.3% Triton X-100 for 15 min and then 4-methylumbelliferon-β-D-galactopyranoside was added as a substrate to the final concentration of 80 μM. After 1 h the fluorescence of product 4-methylumbelliferon was measured at 355/460 nm (ex/em) with a Fluoroskan Ascent microplate reader (Labsystems). Data in Tab. 8 present that series of 2-substituted-6-biarylmethylamino-9-cyclopentyl-9H-purine derivatives show a dose-dependent activatory effect on p53-regulated transcription, with the maximum impact observed between 100 and 500 nM concentrations for most of prepared compounds (Tab. 8).

Hep3B = test: MTT cytotoxicity assay (Example 30); assay type: cell-based, human; conditions: Homo sapiens, Hep3B, 72 h; MTT, three days after drug addition; read-out: Inhibitory concentration IC50, Hep3B
Protocol: Cytotoxicity of the compounds is the major property determining their anticancer effect in vivo. One of the parameters used, as the basis for cytotoxicity assays, is the metabolic activity of viable cells.
as §2, with “Unique HCC-1.2 (3p) and HCC-1.1 (3sp) cell lines (Zilj et al., 2009, Future Oncol, 5(8):1169-79) and Hep3B cells were cultivated in RPMI supplemented with 10% fetal bovine serum, penicillin (100 U/ml) and streptomycin (100 μg/ml).” left out

Compound | Relative caspase-3/7 activity in PLC/PRF/5 cell line ([1]; compound concentration 40 nM) | Relative caspase-3/7 activity in PLC/PRF/5 cell line ([1]; compound concentration 80 nM) | Relative caspase-3/7 activity in PLC/PRF/5 cell line ([1]; compound concentration 160 nM) | Relative caspase-3/7 activity in PLC/PRF/5 cell line ([1]; compound concentration 320 nM) | Relative caspase-3/7 activity in PLC/PRF/5 cell line ([1]; compound concentration 640 nM) | Relative caspase-3/7 activity in PLC/PRF/5 cell line ([1]; compound concentration 1280 nM) | Relative caspase-3/7 activity in Hep3B cell line ([2]; 200 nM) | Relative caspase-3/7 activity in Hep3B cell line ([2]; 400 nM) | Relative caspase-3/7 activity in Hep3B cell line ([2]; 800 nM) | Relative caspase-3/7 activity in Hep3B cell line ([2]; 1600 nM) | pIC50 (HepG2) | Concentration of maximum activation [3] [nM] | pIC50 (Hep3B) | Relative caspase-3/7 activity in Hep3B cell line ([2]; 100 nM)
NC1CCC(Nc2nc(NCc3ccc(-c4cccs4)cc3)c3ncn(C4CCCC4)c3n2)CC1 (stereo not drawn) [BP2, N^2-(4-amino-cyclohexyl)-9-cyclopentyl-N^6-(4-thiophen-2-yl-benzyl)-9H-purine-2,6-diamine] | 1.09 | 1.14 | 1.30 | 2.24 | >5.00 | >5.00 | 1.09 | 1.40 | 3.73 | 7.77 | 6.35 | 930 | 6.34 | –
NC1CCC(Nc2nc(NCc3ccc(-c4ccco4)cc3)c3ncn(C4CCCC4)c3n2)CC1 (stereo not drawn) [BP4, N^2-(4-amino-cyclohexyl)-9-cyclopentyl-N^6-(4-furan-2-yl-benzyl)-9H-purine-2,6-diamine] | – | – | 0.67 | 0.61 | 0.33 | 0.55 | 1.12 | 1.44 | 5.58 | 9.25 | 6.41 | 700 | 6.15 | –
NC1CCC(Nc2nc(NCc3ccc(-c4ccsc4)cc3)c3ncn(C4CCCC4)c3n2)CC1 (stereo not drawn) [BP5, N^2-(4-amino-cyclohexyl)-9-cyclopentyl-N^6-(4-thiophen-3-yl-benzyl)-9H-purine-2,6-diamine] | 0.65 | 1.07 | 2.22 | 3.37 | >5.00 | >5.00 | 1.09 | 1.48 | 6.65 | 8.96 | 6.61 | 961 | 6.39 | –
NC1CCC(Nc2nc(NCc3ccc(-c4cccc(F)c4)cc3)c3ncn(C4CCCC4)c3n2)CC1 (stereo not drawn) [BP12, N^2-(4-amino-cyclohexyl)-9-cyclopentyl-N^6-(3′-fluoro-biphenyl-4-ylmethyl)-9H-purine-2,6-diamine] | 0.93 | 1.27 | 3.10 | 2.95 | >5.00 | >5.00 | 1.12 | 4.20 | 7.04 | 9.85 | 6.61 | 986 | 6.38 | –
NC1CCC(Nc2nc(NCc3ccc(-c4ccoc4)cc3)c3ncn(C4CCCC4)c3n2)CC1 (stereo not drawn) [BP13, N^2-(4-amino-cyclohexyl)-9-cyclopentyl-N^6-(4-furan-3-yl-benzyl)-9H-purine-2,6-diamine] | 0.99 | 1.37 | 1.72 | 2.28 | >5.00 | >5.00 | 0.95 | 1.71 | 5.65 | 7.81 | 6.59 | 970 | 6.29 | –
NC1CCC(Nc2nc(NCc3ccc(-c4ccco4)nc3)c3ncn(C4CCCC4)c3n2)CC1 (stereo not drawn) [BP14, N^2-(4-amino-cyclohexyl)-9-cyclopentyl-N^6-(6-furan-2-yl-pyridin-3-ylmethyl)-9H-purine-2,6-diamine] | 1.99 | 2.86 | >5.00 | >5.00 | >5.00 | >5.00 | 3.60 | 6.55 | 9.00 | 9.50 | 6.68 | 137 | 7.24 | 0.99
COc1ccccc1-c1ccc(CNc2nc(NC3CCC(N)CC3)nc3c2ncn3C2CCCC2)cc1 (stereo not drawn) [BP16, N^2-(4-amino-cyclohexyl)-9-cyclopentyl-N^6-(2′-methoxy-biphenyl-4-ylmethyl)-9H-purine-2,6-diamine] | 1.01 | 0.73 | 1.15 | 2.42 | >5.00 | >5.00 | 0.93 | 1.26 | 2.82 | 7.07 | 6.03 | 943 | 6.27 | –
